Results on two molecules are retold here after US20090181392A1, “Transgenic Zebrafish Models for Neurodegenerative Diseases” (priority 2001, published 2009).

“Also recorded” adds a separate entry of the source.

This series relates to dopaminergic neurons in zebrafish embryos. Put plainly: MPTP neurotoxicity and neuroprotection in zebrafish embryos, whole mount in situ hybridization with tyrosine hydroxylase probe. The series is classed as in vivo, zebrafish (Danio rerio). The settings on record: for protection of neurons from MPTP-induced damage: coculture/coincubation of embryos with MPTP 10 μg/mL (43 μM). As to the method:
Mating pairs of adult zebrafish are placed in mating cages in the evening. The following morning, eggs are collected from the bottom of the mating cage and fertile embryos are placed in fresh fish water. At the end of the day, (embryos should be at the late gastrulation stage) phenylthiourea (PTU, Sigma-Aldrich) is added to a final concentration of 0.003% to prevent formation of pigment. At approximately 24 hours past fertilization (hpf), embryos are transferred to a 24 or 96 well plate for treatment in different concentrations of neurotoxins. Zebrafish embryos at this stage in development have completed much of their brain development and primary neurogenesis (Kimmel, et al., 1995). Motor neurons and some dopaminergic neurons are detectable at this stage (Eisen, et al., 1986; Guo, et al., 1999).
Initial concentrations of neurotoxins, including MPTP, hydroxydopamine, NMDA and THA (all purchased from Sigma-Aldrich), are determined based on the concentrations administered to goldfish (Goping, et al., 1995) and that used in cultured spinal cord explant experiments (Rothstein, et al., 1993; Annis and Vaugn, 1998). One of skill can adjust the concentrations depending on the level of neuronal damage desired and the time frame for neuronal damage.
After embryos are secured in plates with lids, plates are transferred to an incubator, preset to 28.5° C., the optimal temperature for zebrafish development. At different time points (1, 2, and 3 days after treatment), untreated embryos and embryos treated with MPTP or hydroxydopamine are fixed in 4% paraformaldehyde and prepared for in situ hybridization and/or immunohistochemistry.
In situ hybridization is performed as described by Thisse, et al. (1993). A plasmid containing a partial cDNA sequence encoding tyrosine hydroxylase was obtained from A. Rosenthal (Guo, et al., 1999). An antisense RNA probe to this gene can be synthesized by in vitro transcription, incorporating digoxygenin-labeled UTP (Roche Molecular Biochemicals). Embryos are hybridized with probe overnight at 70 degrees in 50% formamide buffer. After several washes, embryos are incubated overnight with an antibody to digoxygenin conjugated to alkaline phosphatase (Roche Molecular Biochemicals). […]
This study is performed essentially as described above, except that neuroprotective drugs (levodopa, deprenyl, and D-AP5, Sigma-Aldrich) are added to the embryo cultures at selected time points, both concurrently with neurotoxins and after neurotoxins have exerted their effects. Initial concentrations are determined based on that used in goldfish and tissue culture expeirments. Again, results are measured by examination of neurons in both a qualitative and quantitative manner, as described above. […]

Turning to `C#CCN(C)[C@H](C)Cc1ccccc1` [L-deprenyl], the “protection of neurons from MPTP-induced damage” value is on record as “MPTP-induced damage can be prevented”. Where the note is “listed as deprenyl”, the “protection of neurons from MPTP-induced damage” value is on record as “protects neurons”.

As for `CN1CC=C(c2ccccc2)CC1` [MPTP, 1-methyl-4-phenyl-1,2,3,6-tetrahydropyridine], the “effect on non-dopaminergic cell populations” value (MPTP 10 μg/mL (43 μM), 5 day old embryo, tyrosine hydroxylase in situ hybridization (FIG. 2)) is reported as “unchanged”. Besides, the “effect on dopaminergic neurons / dopaminergic populations” value (MPTP 10 μg/mL (about 43 μM), embryos soaked, 5 day old embryo, tyrosine hydroxylase in situ hybridization (FIG. 2)) is reported as “destroys dopaminergic populations; also recorded: significantly reduced”.
